Assay results reported in US20240174675A1, “SMALL MOLECULE REGULATORS OF ALVEOLAR TYPE 2 CELL PROLIFERATION FOR THE TREATMENT OF PULMONARY DISEASES” (THE SCRIPPS RESEARCH INSTITUTE, priority 2021, published 2024).
“Also recorded” adds a separate entry of the source.

How the values were obtained:
[1] = test system: LPS induced acute lung injury in mice; experiment: LPS-induced acute lung injury (ALI) model; format: in vivo, C57BL/6J mice; conditions: mouse ALI model; every other day via intratracheal administration
Method: LPS from E. coli […] (Sigma) was used to induce acute lung injury in mice. Body weight matched (19 gram-22 gram) female C57BL/6J mice at 9-11 weeks of age were selected to use in ALI model.
(§1) For oral delivery, DPP4 inhibitors were dissolved in PBS resulting in clear solution. Vehicle control or DPP4 inhibitors were dosed at 10 ml/kg through oral gavage once or twice a day selected based on PK profile. For intratracheally delivered DPP4 inhibitors, compounds were dissolved in PBS resulting in clear solution. Vehicle control or DPP4 inhibitors were dosed at 2 ml/kg through a 22 g flexible catheter every other day.
LPS (1.5 mg/kg for testing orally delivered DPP4 inhibitors and 1.2 mg/kg for testing intratracheally delivered DPP4 inhibitors) or PBS in sham group was intratracheally injection into mice lung at day 0. DPP4 inhibitors or vehicle control were given to mice starting from one day before LPS injection (day −1).
All animals were sacrificed at day 3.5 after LPS injection. Bronchoalveolar lavage fluid (BALF) was retrieved using standard method. 1 ml 4% formalin was used to inflate the lung, which was subsequently fixed in 4% formalin for 24 hours and preserved in 70% EtOH until histological process.
For readouts, total protein content in BALF was quantified using BCA assay; pulmonary inflammation and damage were assessed using H & E staining.

[2] = Pharmacokinetic profiling, plasma and lung levels after intratracheal or inhalation delivery in the mouse; format: in vivo; conditions: for Kp: read-out: AUC ratio; for AUC(0-t): read-out: AUC0-24; for MRT inf: read-out: MRT0-inf
[3] = Pharmacokinetic profiling, plasma and lung levels after intratracheal delivery in the rat; format: in vivo; conditions: Male, Sprague Dawley strain, 2 mg/kg, 1 mg/ml in PBS; for MRT inf: read-out: MRT0-inf
Method: To assess the time course of the plasma and lung exposure of compounds disclosed herein, rodents were dosed IT with an exemplary compound of the present disclosure. The plasma and lung samples were taken at different time points. The drug levels were measured by LCMS.

[4] = test system: AEC2s; experiment: Single cell RNA-sequencing from the lungs of mice (proliferating cell types); format: in vivo; conditions: mouse lung, 0.5 mg/kg IT; for cell types proliferative in response to treatment: animals sacrificed 2 and 4 days after dosing (FIG. 5)
Method: Single cell RNA-sequencing from the lungs of mice was performed to understand which cell types are proliferative in response to compound 46 treatment.

[5] = biological target: T1, Human DPP4 (Homo sapiens, UniProt P27487); experiment: DPP4 activity assay (DPP4 Activity Assay Kit, fluorescent substrate); format: biochemical; conditions: Human DPP4; read-out: DPP4 inhibition IC50 [nM])
T1 construct: purchased Sigma-Aldrich MAK088
Method: DPP4 activity assay. Human DPP4 activity assay data were obtained using a DPP4 Activity Assay Kit (Sigma-Aldrich, MAK088) according to the manufacturer's instructions. Briefly, 10 μL of DPP4 Assay Buffer were transferred per well in low volume 384-well plates before transferring 10 μL of test compound dissolved in DPP4 assay buffer. To each well was added 5 μL of Master Reaction Mix containing a fluorescent substrate that becomes fluorescent upon cleavage by the enzyme. Fluorescence intensity measurements were recorded at 1-minute time intervals over the course of 20 minutes using an Envision Multimode Plate Reader (PerkinElmer).

[6] = test system: bleomycin induced lung fibrosis in mice; experiment: Bleomycin induced lung fibrosis model; format: in vivo, C57BL/6J mice; conditions: for efficacy in combination with Nintedanib: Compound 46 0.5 mg/kg IT, E4D, Bliss independence, BALF protein content and Ashcroft scoring (FIG. 4)
Method: Bleomycin (Hospira) was used to induce lung fibrosis in mice. Body weight matched (24 gram˜28 gram) male C57BL/6J mice at 10-12 weeks of age were selected to use in bleomycin model.
as §1, with “four days.” for “other day.”
0.5 U/kg Bleomycin or PBS in sham group was intratracheally injected into mice lung at day 0. DPP4 inhibitors or vehicle control were given to mice starting from one day before bleomycin injection (day −1).
All animals were sacrificed at day 20 after bleomycin injection. Bronchoalveolar lavage fluid (BALF) was retrieved using standard method. 1 ml 4% formalin was used to inflate the lung, which was subsequently fixed in 4% formalin for 24 hours and preserved in […] until histological process.
For readouts, body weight was measured every day; total protein content in BALF was quantified using BCA assay; pulmonary fibrosis was assessed using Masson's trichrome staining.

[7] = Mouse, Male, CD-1 strain, Intratracheal, 2 mg/kg, 1 mg/ml in PBS, Lung
[8] = Mouse, Male, CD-1 strain, Intratracheal, 2 mg/kg, 1 mg/ml in PBS, Plasma
[9] = inhaled or intranasal, Mouse, Male, CD-1 strain, Inhalation, 10 mg/ml in PBS for 15 mins, Lung
[10] = inhaled or intranasal, Mouse, Male, CD-1 strain, Inhalation, 10 mg/ml in PBS for 15 mins, Plasma
[11] = inhaled or intranasal, Mouse, Male, CD-1 strain, Intratracheal, 2 mg/kg, 1 mg/ml in PBS, Lung
[12] = inhaled or intranasal, Mouse, Male, CD-1 strain, Intratracheal, 2 mg/kg, 1 mg/ml in PBS, Plasma
[13] = mouse, IT dosing at 2 mg/kg (FIG. 2)

T1 sequence (P27487 whole entry): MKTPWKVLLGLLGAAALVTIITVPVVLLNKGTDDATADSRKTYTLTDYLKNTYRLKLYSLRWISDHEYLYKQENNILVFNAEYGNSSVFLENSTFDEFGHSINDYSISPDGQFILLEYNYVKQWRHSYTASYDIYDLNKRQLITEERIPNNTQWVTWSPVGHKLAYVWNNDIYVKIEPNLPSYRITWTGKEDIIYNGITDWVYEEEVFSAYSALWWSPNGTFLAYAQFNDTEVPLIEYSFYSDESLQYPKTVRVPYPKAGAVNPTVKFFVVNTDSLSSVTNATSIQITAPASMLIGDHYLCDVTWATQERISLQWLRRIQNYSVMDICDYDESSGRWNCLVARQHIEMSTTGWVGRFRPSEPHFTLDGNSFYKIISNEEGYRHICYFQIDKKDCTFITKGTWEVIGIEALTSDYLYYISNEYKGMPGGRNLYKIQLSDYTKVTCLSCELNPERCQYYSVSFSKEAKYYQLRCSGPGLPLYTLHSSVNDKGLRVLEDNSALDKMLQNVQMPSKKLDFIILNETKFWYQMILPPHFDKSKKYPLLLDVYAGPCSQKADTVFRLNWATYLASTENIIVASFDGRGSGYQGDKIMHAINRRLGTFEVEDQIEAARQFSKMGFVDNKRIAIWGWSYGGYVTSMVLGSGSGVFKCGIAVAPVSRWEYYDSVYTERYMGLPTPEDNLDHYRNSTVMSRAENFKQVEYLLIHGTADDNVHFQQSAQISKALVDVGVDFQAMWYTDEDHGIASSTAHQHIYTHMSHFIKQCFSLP

AUC0-inf ([2]; Mouse, Male, CD-1 strain, Inhalation, 10 mg/ml in PBS for 15 mins, Lung): 509,951 ng · h/g
AUC ratio ([2]; Mouse, Male, CD-1 strain, Inhalation, 10 mg/ml in PBS for 15 mins, Plasma): 1
AUC0-24 [2, 7]: 258,902 ng · h/g
AUC0-inf [2, 7]: 1,082,408 ng · h/g
Tmax [2, 7]: 0.25 h
Kp [2, 7]: 1350
AUC ratio [2, 8]: 1
AUC(0-t) [2, 8]: 0.728 µg·h/mL
AUC0-inf ([2]; Mouse, Male, CD-1 strain, Intratracheal, 2 mg/kg, 1 mg/ml in PBS, Plasma, read-out: AUC0-inf): 0.729 µg·h/mL
MRT inf [2, 8]: 1.88 h
Cmax [2, 9]: 20900 ng/g
Tmax [2, 9]: 0.25 h
Kp [2, 9]: 9240
Cmax [2, 10]: 0.0359 µg/mL
Tmax [2, 10]: 0.5 h
half-life [2, 10]: 1.5 h
AUC(0-t) [2, 10]: 0.0534 µg·h/mL
AUC0-inf ([2]; inhaled or intranasal, Mouse, Male, CD-1 strain, Inhalation, 10 mg/ml in PBS for 15 mins, Plasma, read-out: AUC0-inf): 0.0552 µg·h/mL
MRT inf [2, 10]: 1.69 h
Cmax [2, 11]: 24600 ng/g
half-life [2, 11]: 54.1 h
MRT inf [2, 11]: 80.6 h
Cmax [2, 12]: 0.435 µg/mL
Tmax [2, 12]: 0.25 h
half-life [2, 12]: 1.28 h
time retained in the lung [2, 13]: 7 days
AUC0-24 ([3]; Lung): 658004 ng·h/g
AUC0-inf ([3]; Lung): 4738852 ng·h/g
AUC ratio ([3]; Plasma): 1
Cmax ([3]; inhaled or intranasal, Lung): 41400 ng/g
Tmax ([3]; inhaled or intranasal, Lung): 0.25 h
half-life ([3]; inhaled or intranasal, Lung): 119 h
Kp ([3]; inhaled or intranasal, Lung, read-out: AUC ratio): 145
MRT inf ([3]; inhaled or intranasal, Lung): 186 h
Cmax ([3]; inhaled or intranasal, Plasma): 14.7 µg/mL
Tmax ([3]; inhaled or intranasal, Plasma): 0.25 h
half-life ([3]; inhaled or intranasal, Plasma): 68.8 h
AUC(0-t) ([3]; inhaled or intranasal, Plasma, read-out: AUC0-24): 18 µg·h/mL
AUC0-inf ([3]; inhaled or intranasal, Plasma, read-out: AUC0-inf): 18.6 µg·h/mL
MRT inf ([3]; inhaled or intranasal, Plasma): 6 h
IC50 [5]: 0.15 nM
Compound: CCCCCCN(Cc1cn(CCOCCOCCOC(=O)c2nc(C(F)(F)F)n3c2CN(C(=O)C[C@H](N)Cc2cc(F)c(F)cc2F)CC3)nn1)C[C@H](O)[C@@H](O)[C@H](O)[C@H](O)CO [Compound 46, 2-(2-(2-(4-((hexyl(2,3,4,5,6-pentahydroxyhexyl)amino)methyl)-1H-1,2,3-triazol-1-yl)ethoxy)ethoxy)ethyl 7-((R)-3-amino-4-(2,4,5-trifluorophenyl)butanoyl)-3-(trifluoromethyl)-5,6,7,8-tetrahydroimidazo[1,5-a]pyrazine-1-carboxylate]
minimal efficacious dose [1]: 0.02 mg/kg
plasma and lung exposure profiles compared to retagliptin [2, 13]: significantly higher plasma and lung exposure profiles compared to retagliptin
accumulation of AEC2s after treatment ([4]; 2 and 4 days after dosing): time-dependent accumulation of AEC2s
cell types proliferative in response to treatment ([4]; listed as Compound 46, 0.5 mg/kg): selectively expanded AEC2s
cell types proliferative in response to treatment ([4]; listed as compound 46, 0.5 mg/kg): only cycling and transitional AEC2s were induced to proliferate
efficacy in combination with Nintedanib ([6]; bleomycin model, listed as Compound 46, 0.5 mg/kg): synergistic efficacy
efficacy in combination with Nintedanib ([6]; bleomycin model, listed as compound 46, 0.5 mg/kg): impressive and synergistic efficacy
minimal efficacious dose ([6]; bleomycin model, every four-day intratracheal dosing regime): 0.5 mg/kg
efficacy in the bleomycin induced pulmonary fibrosis model ([6]; mouse, intratracheally 0.5 mg/kg every four days, body weight, BALF protein, fibrotic area, modified Ashcroft scores (FIG. 3)): displayed efficacy; also recorded: rescue of key metrics including body weight, BALF protein content, fibrotic area, and histological scoring
